In patent US8853250B2, “Sodium channel inhibitors” (Icagen, Inc., priority 2007, dated 2014) one finds IC50 data, which are given here for three molecules.

Assay [1] has as its target T1, hSCN9A (Homo sapiens, UniProt Q15858).
T1 construct: expressed in transfected cells
Put plainly: Whole-cell patch-clamp electrophysiology, hSCN9A in HEK cells. Type of assay: cell-based. As to the method:
(§1) Human Embryonic Kidney (HEK) cells were transfected with hSCN3A or hSCN9A constructs using lipofectamine reagent (Invitrogen), using standard techniques. […] Clones were screened for expression using the whole-cell voltage-clamp technique.
(§2) HEK cells stably transfected with hSCN3A or hSCN9A were maintained in DMEM medium supplemented with 10% heat-inactivated fetal bovine serum and 400 μg/ml G418 sulfate in an incubator at 37° C. with a humidified atmosphere of 10% CO2. […] For electrophysiological studies, cells were removed from the culture flask by brief trypsinization and replated at low density onto glass cover slips. Cells were typically used for electrophysiological experiments within 24 to 72 h after plating. […]
(§3) The voltage-dependence of inactivation was determined by applying a series of depolarizing prepulses (8 sec long in 10 mV increments) from a negative holding potential. […] Cells were then voltage clamped at the empirically determined V1/2.
(§4) Compounds were tested for their ability to inhibit hSCN3A or hSCN9A sodium channels by activating the channel with a 20 msec voltage step to 0 mV following an 8 second conditioning prepulse to the empirically determined V1/2 (Table B). Compound effect (% inhibition) was determined by difference in current amplitude before and after application of test compounds. […]

The target of assay [2] is T2, hSCN3A (Homo sapiens, UniProt Q9NY46).
T2 construct: expressed in transfected cells
T2 sequence (Q9NY46 whole entry): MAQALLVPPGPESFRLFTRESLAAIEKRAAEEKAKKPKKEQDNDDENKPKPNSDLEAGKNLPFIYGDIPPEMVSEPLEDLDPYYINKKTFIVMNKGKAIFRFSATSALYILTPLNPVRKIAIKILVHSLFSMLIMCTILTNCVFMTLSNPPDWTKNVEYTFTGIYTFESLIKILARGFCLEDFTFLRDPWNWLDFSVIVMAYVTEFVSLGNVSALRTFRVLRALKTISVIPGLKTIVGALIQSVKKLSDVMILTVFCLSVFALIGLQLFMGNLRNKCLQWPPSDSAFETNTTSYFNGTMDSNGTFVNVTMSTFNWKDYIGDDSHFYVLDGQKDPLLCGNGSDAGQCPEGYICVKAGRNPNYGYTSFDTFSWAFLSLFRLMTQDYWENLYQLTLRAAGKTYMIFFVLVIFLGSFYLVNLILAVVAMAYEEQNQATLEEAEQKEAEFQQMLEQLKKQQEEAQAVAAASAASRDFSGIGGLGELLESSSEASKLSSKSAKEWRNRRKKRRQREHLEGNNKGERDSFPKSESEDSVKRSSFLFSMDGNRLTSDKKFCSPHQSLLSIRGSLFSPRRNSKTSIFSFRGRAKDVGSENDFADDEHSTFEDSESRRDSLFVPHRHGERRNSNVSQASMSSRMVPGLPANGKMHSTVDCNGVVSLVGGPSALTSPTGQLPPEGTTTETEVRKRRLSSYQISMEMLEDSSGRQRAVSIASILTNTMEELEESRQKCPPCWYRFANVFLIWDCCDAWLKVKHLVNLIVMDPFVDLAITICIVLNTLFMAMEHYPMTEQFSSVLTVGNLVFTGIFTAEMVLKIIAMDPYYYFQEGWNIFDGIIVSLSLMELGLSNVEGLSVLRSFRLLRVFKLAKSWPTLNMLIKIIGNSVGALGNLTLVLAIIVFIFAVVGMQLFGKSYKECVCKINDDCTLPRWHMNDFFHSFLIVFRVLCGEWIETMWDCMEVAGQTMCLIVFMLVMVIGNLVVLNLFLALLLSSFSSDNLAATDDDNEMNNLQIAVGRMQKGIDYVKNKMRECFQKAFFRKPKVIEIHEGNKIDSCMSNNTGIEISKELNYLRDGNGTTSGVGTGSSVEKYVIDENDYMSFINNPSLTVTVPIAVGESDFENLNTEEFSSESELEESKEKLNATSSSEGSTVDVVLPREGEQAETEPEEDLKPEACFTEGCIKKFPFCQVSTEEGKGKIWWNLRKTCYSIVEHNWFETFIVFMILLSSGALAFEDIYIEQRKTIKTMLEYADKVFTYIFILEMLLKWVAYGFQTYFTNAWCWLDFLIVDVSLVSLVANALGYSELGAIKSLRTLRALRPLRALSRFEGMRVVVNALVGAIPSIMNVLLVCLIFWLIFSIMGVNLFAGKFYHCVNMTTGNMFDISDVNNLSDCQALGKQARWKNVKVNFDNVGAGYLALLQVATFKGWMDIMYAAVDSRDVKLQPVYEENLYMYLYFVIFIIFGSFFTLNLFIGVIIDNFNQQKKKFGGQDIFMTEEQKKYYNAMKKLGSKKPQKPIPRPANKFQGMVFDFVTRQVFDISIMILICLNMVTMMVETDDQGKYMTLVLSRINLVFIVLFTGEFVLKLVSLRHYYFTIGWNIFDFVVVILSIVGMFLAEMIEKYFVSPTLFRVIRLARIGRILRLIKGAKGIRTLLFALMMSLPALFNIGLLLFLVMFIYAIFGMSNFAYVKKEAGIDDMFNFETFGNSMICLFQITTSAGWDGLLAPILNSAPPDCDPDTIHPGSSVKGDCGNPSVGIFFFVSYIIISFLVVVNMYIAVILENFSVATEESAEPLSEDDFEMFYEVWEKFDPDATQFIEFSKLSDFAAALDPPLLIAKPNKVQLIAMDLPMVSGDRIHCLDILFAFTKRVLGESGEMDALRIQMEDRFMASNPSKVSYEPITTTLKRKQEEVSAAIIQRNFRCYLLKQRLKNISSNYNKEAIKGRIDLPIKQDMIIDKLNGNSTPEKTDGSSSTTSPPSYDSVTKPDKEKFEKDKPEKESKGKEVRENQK
Put plainly: Whole-cell patch-clamp electrophysiology, hSCN3A in HEK cells. In kind it is cell-based. The procedure: as §1, §2, §3, §4
(In general: In patch-clamp work, channel activity is measured electrically.)

In assay [3] the target is Nav1.9 (Homo sapiens, UniProt Q9UI33). To be noted: read-out: TTX IC-50; cited from earlier work.
For assay [4], the target named is Nav1.1 (Homo sapiens, UniProt P35498). To be noted: read-out: TTX IC-50; cited from earlier work.
Assay [5] concerns the target Nav1.2 (Homo sapiens, UniProt Q99250). As to conditions: read-out: TTX IC-50; cited from earlier work.
Assay [6] addresses Nav1.3 (Homo sapiens, UniProt Q9NY46). As to conditions: read-out: TTX IC-50; cited from earlier work.
Assay [7] deals with Nav1.6 (Homo sapiens, UniProt Q9UQD0). To be noted: read-out: TTX IC-50; cited from earlier work.
Assay [8] deals with Nav1.8 (Homo sapiens, UniProt Q9Y5Y9). As to conditions: read-out: TTX IC-50; cited from earlier work.

pIC50: −log10 of the molar value. Read-outs that look alike come from different tables or passages of the source.

T1 sequence (Q15858 whole entry): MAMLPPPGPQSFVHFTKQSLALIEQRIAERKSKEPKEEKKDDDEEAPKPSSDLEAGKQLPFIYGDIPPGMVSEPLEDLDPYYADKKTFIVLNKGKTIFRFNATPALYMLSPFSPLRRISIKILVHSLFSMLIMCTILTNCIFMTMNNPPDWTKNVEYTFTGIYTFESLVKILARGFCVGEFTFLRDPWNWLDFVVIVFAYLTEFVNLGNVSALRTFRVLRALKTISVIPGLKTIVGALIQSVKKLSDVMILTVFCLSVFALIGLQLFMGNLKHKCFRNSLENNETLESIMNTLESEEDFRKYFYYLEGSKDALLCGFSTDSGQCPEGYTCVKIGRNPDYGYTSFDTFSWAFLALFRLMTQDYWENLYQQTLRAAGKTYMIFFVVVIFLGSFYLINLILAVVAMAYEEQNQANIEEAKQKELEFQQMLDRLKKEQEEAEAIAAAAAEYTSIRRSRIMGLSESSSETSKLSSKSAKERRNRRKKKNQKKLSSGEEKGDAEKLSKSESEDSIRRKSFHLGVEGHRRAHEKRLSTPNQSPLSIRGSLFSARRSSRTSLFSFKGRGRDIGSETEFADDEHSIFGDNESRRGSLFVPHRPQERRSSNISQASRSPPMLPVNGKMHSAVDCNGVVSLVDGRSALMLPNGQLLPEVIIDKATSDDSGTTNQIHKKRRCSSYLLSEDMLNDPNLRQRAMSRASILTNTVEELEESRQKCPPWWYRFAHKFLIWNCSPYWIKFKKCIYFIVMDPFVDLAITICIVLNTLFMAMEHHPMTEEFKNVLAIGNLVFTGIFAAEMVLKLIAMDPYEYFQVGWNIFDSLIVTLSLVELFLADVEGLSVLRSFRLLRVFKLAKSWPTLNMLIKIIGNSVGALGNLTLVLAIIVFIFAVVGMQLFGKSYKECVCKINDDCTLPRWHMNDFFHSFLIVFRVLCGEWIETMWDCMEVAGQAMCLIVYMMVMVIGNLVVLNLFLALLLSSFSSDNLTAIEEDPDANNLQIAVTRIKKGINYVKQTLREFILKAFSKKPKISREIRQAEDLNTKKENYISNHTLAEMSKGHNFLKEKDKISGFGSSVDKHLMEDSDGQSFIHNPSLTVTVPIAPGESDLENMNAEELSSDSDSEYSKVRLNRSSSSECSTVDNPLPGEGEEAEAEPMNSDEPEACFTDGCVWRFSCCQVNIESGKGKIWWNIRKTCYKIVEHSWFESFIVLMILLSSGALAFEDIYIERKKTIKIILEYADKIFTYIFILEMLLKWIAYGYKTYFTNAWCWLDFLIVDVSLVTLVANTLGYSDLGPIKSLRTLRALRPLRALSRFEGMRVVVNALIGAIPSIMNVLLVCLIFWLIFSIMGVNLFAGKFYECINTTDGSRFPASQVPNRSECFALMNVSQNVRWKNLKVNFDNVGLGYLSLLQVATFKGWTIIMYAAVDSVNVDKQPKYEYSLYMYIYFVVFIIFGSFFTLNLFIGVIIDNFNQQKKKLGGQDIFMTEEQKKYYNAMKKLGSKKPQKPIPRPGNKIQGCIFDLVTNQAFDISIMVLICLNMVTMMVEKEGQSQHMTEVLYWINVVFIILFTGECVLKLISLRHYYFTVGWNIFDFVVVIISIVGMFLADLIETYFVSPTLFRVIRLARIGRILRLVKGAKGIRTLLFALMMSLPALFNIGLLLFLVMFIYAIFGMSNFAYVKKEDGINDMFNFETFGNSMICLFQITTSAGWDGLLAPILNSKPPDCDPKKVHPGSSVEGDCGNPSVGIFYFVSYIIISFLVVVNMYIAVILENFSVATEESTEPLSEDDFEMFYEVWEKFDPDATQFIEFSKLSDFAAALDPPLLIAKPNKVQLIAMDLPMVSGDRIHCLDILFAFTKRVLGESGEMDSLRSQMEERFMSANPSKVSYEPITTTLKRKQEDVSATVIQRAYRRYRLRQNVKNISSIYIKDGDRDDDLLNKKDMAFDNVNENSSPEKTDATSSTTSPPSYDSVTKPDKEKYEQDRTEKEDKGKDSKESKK
Nav1.3, sequence (Q9NY46 whole entry, looked up): as the sequence (Q9NY46 whole entry) above

For the molecule `O=S(=O)(CCc1ccc(C(F)(F)F)cc1)c1ccc(S(=O)(=O)Nc2nccs2)cc1` [Compound 20, N-(thiazol-2-yl)-4-(4-(trifluoromethyl)phenethylsulfonyl)benzenesulfonamide], the pIC50 is less than 5.00 in assay [1] and 6.80 in assay [2].

As for `O=S(=O)(Nc1nccs1)c1ccc(S(=O)(=O)c2ccccc2)cc1` [Compound 65, 4-(phenylsulfonyl)-N-(thiazol-2-yl)benzenesulfonamide], the pIC50 is 5.57 in assay [1] (estimated IC-50 from single point % inhibition, HEK cells, 8 sec prepulse to V1/2, step to 0 mV, read-out: hSCN9A EIC-50) and 5.30 in assay [2] (estimated IC-50 from single point % inhibition, HEK cells, 8 sec prepulse to V1/2, step to 0 mV, read-out: hSCN3A EIC-50).

With `NC1=N[C@H](O)[C@H]2[C@H]3O[C@]4(O)O[C@@H]([C@@H](O)[C@@]2(N1)[C@@H]4O)[C@]3(O)CO` [TTX, tetrodotoxin], the pIC50 in assay [3] is 6.00; in assay [4], 8.00; in assay [5] it was 8.00; in assay [6] it was 7.82; in assay [7] it was 8.22; in assay [8], 4.30.
